Source: ChEMBL document CHEMBL1201862, “PubChem BioAssay data set” (2004)
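Interpolation was linear, between the two tested concentrations surrounding the appropriate level; five concentrations were tested over 48 hours in 96-well plates. GI50: concentration for 50% inhibition of growth.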 Calls of active or inactive are those of the source. Cut-off read from the data, not from the text of the source: active = GI50 up to about 1.1 µM and inactive = higher.

Legend:
Experiment in all cases: NCI tumour cell line growth inhibition, 48 h
[1] = test system: 786-0
[2] = test system: A498
[3] = test system: A549
[4] = test system: ACHN
[5] = test system: BT-549
[6] = test system: CAKI-1
[7] = test system: CCRF-CEM
[8] = test system: COLO 205
[9] = test system: DU-145
[10] = test system: EKVX
[11] = test system: HCC 2998
[12] = test system: HCT-116
[13] = test system: HCT-15
[14] = test system: HL-60
[15] = test system: HOP-62
[16] = test system: HOP-92
[17] = test system: HT-29
[18] = test system: Hs-578T
[19] = test system: IGROV-1
[20] = test system: K562
[21] = test system: KM12
[22] = test system: LOX IMVI
[23] = test system: M14
[24] = test system: MCF7
[25] = test system: MDA-MB-231
[26] = test system: MDA-MB-435
[27] = test system: MDA-N
[28] = test system: MOLT-4
[29] = test system: Malme-3M
[30] = test system: NCI-H226
[31] = test system: NCI-H23
[32] = test system: NCI-H460
[33] = test system: NCI-H522
[34] = test system: NCI/ADR-RES
[35] = test system: OVCAR-3
[36] = test system: OVCAR-4
[37] = test system: OVCAR-5
[38] = test system: OVCAR-8
[39] = test system: PC-3
[40] = test system: RXF 393
[41] = test system: SF-268
[42] = test system: SF-295
[43] = test system: SF-539
[44] = test system: SK-MEL-28
[45] = test system: SK-MEL-2
[46] = test system: SK-MEL-5
[47] = test system: SK-OV-3
[48] = test system: SN12C
[49] = test system: SNB-19
[50] = test system: SNB-75
[51] = test system: SR
[52] = test system: SW-620
[53] = test system: T47D
[54] = test system: TK-10
[55] = test system: U-251
[56] = test system: UACC-257
[57] = test system: UACC-62
[58] = test system: UO-31
[59] = test system: RPMI-8226

SMILES: c1ccc2c3c(c(N4CCNCC4)nc2c1)CCCC3
- GI50 [1]: 14.4 µM (inactive)
- GI50 [2]: 14.5 µM (inactive)
- GI50 [3]: 15.1 µM (inactive)
- GI50 [4]: 14.5 µM (inactive)
- GI50 [5]: 13.9 µM (inactive)
- GI50 [6]: 9.25 µM (inactive)
- GI50 [7]: 9.98 µM (inactive)
- GI50 [8]: 5.75 µM (inactive)
- GI50 [9]: 15.3 µM (inactive)
- GI50 [10]: 7.53 µM (inactive)
- GI50 [11]: 1.95 µM (inactive)
- GI50 [12]: 14.1 µM (inactive)
- GI50 [13]: 15.8 µM
- GI50 [14]: 8.93 µM (inactive)
- GI50 [15]: 17.7 µM (inactive)
- GI50 [16]: 14.2 µM (inactive)
- GI50 [17]: 14.2 µM (inactive)
- GI50 [18]: 27.7 µM (inactive)
- GI50 [19]: 12.4 µM (inactive)
- GI50 [20]: 5.5 µM (inactive)
- GI50 [21]: 17.2 µM (inactive)
- GI50 [22]: 14.2 µM (inactive)
- GI50 [23]: 5.26 µM (inactive)
- GI50 [24]: 14.4 µM (inactive)
- GI50 [25]: 14.3 µM (inactive)
- GI50 [26]: 11.4 µM (inactive)
- GI50 [27]: 13.9 µM (inactive)
- GI50 [28]: 16.1 µM (inactive)
- GI50 [29]: 19.9 µM (inactive)
- GI50 [30]: 14.8 µM (inactive)
- GI50 [31]: 14.6 µM (inactive)
- GI50 [32]: 15.1 µM (inactive)
- GI50 [33]: 15.3 µM (inactive)
- GI50 [34]: 14.1 µM (inactive)
- GI50 [35]: 15.5 µM (inactive)
- GI50 [36]: 16 µM (inactive)
- GI50 [37]: 13.7 µM (inactive)
- GI50 [38]: 15.5 µM (inactive)
- GI50 [39]: 13 µM (inactive)
- GI50 [40]: 10.4 µM (inactive)
- GI50 [41]: 15.2 µM (inactive)
- GI50 [42]: 21.6 µM (inactive)
- GI50 [43]: 10.7 µM (inactive)
- GI50 [44]: 16.1 µM (inactive)
- GI50 [45]: 12.6 µM (inactive)
- GI50 [46]: 12 µM (inactive)
- GI50 [47]: 18.8 µM (inactive)
- GI50 [48]: 16.3 µM (inactive)
- GI50 [49]: 14.6 µM (inactive)
- GI50 [50]: 13.9 µM (inactive)
- GI50 [51]: 13.2 µM (inactive)
- GI50 [52]: 17 µM (inactive)
- GI50 [53]: 13.5 µM (inactive)
- GI50 [54]: 13.7 µM (inactive)
- GI50 [55]: 13.4 µM (inactive)
- GI50 [56]: 8.15 µM (inactive)
- GI50 [57]: 16.7 µM (inactive)
- GI50 [58]: 2.9 µM (inactive)

SMILES: CC(C)(CN)SCc1ccccc1
- GI50 [1]: > 100 µM (inactive)
- GI50 [2]: > 100 µM (inactive)
- GI50 [3]: > 100 µM (inactive)
- GI50 [4]: > 100 µM (inactive)
- GI50 [5]: > 100 µM (inactive)
- GI50 [6]: > 100 µM (inactive)
- GI50 [7]: > 100 µM (inactive)
- GI50 [8]: > 100 µM (inactive)
- GI50 [9]: > 100 µM (inactive)
- GI50 [10]: > 100 µM (inactive)
- GI50 [12]: > 100 µM (inactive)
- GI50 [13]: > 100 µM
- GI50 [14]: > 100 µM (inactive)
- GI50 [15]: > 100 µM (inactive)
- GI50 [16]: > 100 µM (inactive)
- GI50 [17]: > 100 µM (inactive)
- GI50 [18]: > 100 µM (inactive)
- GI50 [19]: > 100 µM (inactive)
- GI50 [20]: > 100 µM (inactive)
- GI50 [21]: > 100 µM (inactive)
- GI50 [22]: > 100 µM (inactive)
- GI50 [23]: > 100 µM (inactive)
- GI50 [24]: > 100 µM (inactive)
- GI50 [25]: > 100 µM (inactive)
- GI50 [26]: > 100 µM (inactive)
- GI50 [27]: > 100 µM (inactive)
- GI50 [28]: > 100 µM (inactive)
- GI50 [29]: > 100 µM (inactive)
- GI50 [30]: > 100 µM (inactive)
- GI50 [32]: > 100 µM (inactive)
- GI50 [33]: > 100 µM (inactive)
- GI50 [34]: > 100 µM (inactive)
- GI50 [35]: > 100 µM (inactive)
- GI50 [36]: > 100 µM (inactive)
- GI50 [37]: > 100 µM (inactive)
- GI50 [38]: > 100 µM (inactive)
- GI50 [39]: > 100 µM (inactive)
- GI50 [59]: > 100 µM (inactive)
- GI50 [40]: > 100 µM (inactive)
- GI50 [41]: > 100 µM (inactive)
- GI50 [42]: > 100 µM (inactive)
- GI50 [43]: > 100 µM (inactive)
- GI50 [44]: > 100 µM (inactive)
- GI50 [45]: > 100 µM (inactive)
- GI50 [46]: > 100 µM (inactive)
- GI50 [47]: > 100 µM (inactive)
- GI50 [48]: > 100 µM (inactive)
- GI50 [49]: > 100 µM (inactive)
- GI50 [50]: > 100 µM (inactive)
- GI50 [51]: > 100 µM (inactive)
- GI50 [52]: > 100 µM (inactive)
- GI50 [53]: > 100 µM (inactive)
- GI50 [54]: > 100 µM (inactive)
- GI50 [55]: > 100 µM (inactive)
- GI50 [56]: 28.7 µM (inactive)
- GI50 [57]: > 100 µM (inactive)
- GI50 [58]: > 100 µM (inactive)
